Drawing on patent US11844776B2, “Composition for treatment and/or prevention of peripheral nerve disorder” (OSAKA CITY UNIVERSITY, priority 2016, dated 2023), this text covers melting point and IC50 for 20 compounds.

Sequence of m-calpain (derived from porcine kidney) (P43367 whole entry): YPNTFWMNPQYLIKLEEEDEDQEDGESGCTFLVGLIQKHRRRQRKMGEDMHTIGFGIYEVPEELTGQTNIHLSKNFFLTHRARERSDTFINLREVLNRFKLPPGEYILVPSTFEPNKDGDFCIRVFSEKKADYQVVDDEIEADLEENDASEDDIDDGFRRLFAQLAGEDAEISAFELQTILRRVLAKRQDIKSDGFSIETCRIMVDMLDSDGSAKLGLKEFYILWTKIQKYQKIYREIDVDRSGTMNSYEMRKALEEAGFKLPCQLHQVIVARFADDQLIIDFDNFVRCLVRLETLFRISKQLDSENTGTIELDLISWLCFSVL
Sequence of m-calpain (derived from porcine kidney) (P04574 whole entry, further chain): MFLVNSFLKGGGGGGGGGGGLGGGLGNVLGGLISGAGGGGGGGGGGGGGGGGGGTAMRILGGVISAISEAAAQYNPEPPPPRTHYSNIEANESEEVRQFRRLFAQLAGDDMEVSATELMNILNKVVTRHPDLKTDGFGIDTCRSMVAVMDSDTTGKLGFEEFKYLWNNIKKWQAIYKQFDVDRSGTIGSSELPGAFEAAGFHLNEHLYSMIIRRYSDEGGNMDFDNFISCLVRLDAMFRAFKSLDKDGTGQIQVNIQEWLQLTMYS

System in one data set: not given
Experiment: not given
Details: not given
For the compound `CCNC(=O)C(=O)[C@H](Cc1ccccc1)NC(=O)[C@H](CC(C)C)NC(=O)OCCOC` [Compound 1, ((1S)-1-((((1S)-1-Benzyl-2,3-dioxo-3-(ethylamino)propyl)amino)carbonyl)-3-methylbutyl) carbamic acid 2-methoxyethyl ester], the melting point lay within 138 to 138.3 °C.
The same measure, in the same setting: the figure for `CCNC(=O)C(=O)[C@H](Cc1ccccc1)NC(=O)[C@H](CC(C)C)NC(=O)O[C@H]1CCOC1` [Compound 2, ((1S)-1-((((1S)-1-Benzyl-2,3-dioxo-3-(ethylamino)propyl)amino)carbonyl)-3-methylbutyl)carbamic acid (3S)-tetrahydrofuran-3-yl ester] is 158.9 to 160.7 °C.
Turning to `CCNC(=O)C(=O)[C@H](Cc1ccccc1)NC(=O)[C@H](CC(C)C)NC(=O)OC1CCOCC1` [Compound 3, ((1S)-1-((((1S)-1-Benzyl-2,3-dioxo-3-(ethylamino)propyl)amino)carbonyl)-3-methylbutyl)carbamic acid tetrahydro-4H-pyran-4-yl ester], the melting point was 140 to 141.8 °C.
The compound `COCCOC(=O)N[C@@H](CC(C)C)C(=O)N[C@@H](Cc1ccccc1)C(=O)C(=O)NC1CC1` [Compound 4, ((1S)-1-((((1S)-1-Benzyl-2,3-dioxo-3-(cyclopropylamino)propyl)amino)carbonyl)-3-methylbutyl)carbamic acid 2-methoxyethyl ester] returned a melting point of 112.4 to 113.5 °C.
Same read-out and setting: the figure for `CC(C)C[C@H](NC(=O)O[C@H]1CCOC1)C(=O)N[C@@H](Cc1ccccc1)C(=O)C(=O)NC1CC1` [Compound 5, ((1S)-1-((((1S)-1-Benzyl-3-(cyclopropylamino)-2,3-dioxopropyl)amino)carbonyl)-3-methylbutyl)carbamic acid (3S)-tetrahydrofuran-3-yl ester] is 169.2 to 170.5 °C.
Still for that read-out and setting: the result for `CC(C)C[C@H](NC(=O)OC1CCOCC1)C(=O)N[C@@H](Cc1ccccc1)C(=O)C(=O)NC1CC1` [Compound 6, ((1S)-1-((((1S)-1-Benzyl-3-cyclopropylamino-2,3-dioxopropyl)amino)carbonyl)-3-methylbutyl)carbamic acid tetrahydro-4H-pyran-4-yl ester] reads 137 to 138.2 °C.
In turn, `CCCNC(=O)C(=O)[C@H](Cc1ccccc1)NC(=O)[C@H](CC(C)C)NC(=O)OCCOC` [Compound 7, ((1S)-1-((((1S)-1-Benzyl-2,3-dioxo-3-(propylamino)propyl)amino)carbonyl)-3-methylbutyl) carbamic acid 2-methoxyethyl ester] gave a melting point of 108.8 to 109.9 °C.
Still for that read-out and setting: the figure for `COCCOC(=O)N[C@@H](CC(C)C)C(=O)N[C@@H](Cc1ccccc1)C(=O)C(=O)NC1CCC1` [Compound 8, ((1S)-1-((((1S)-1-Benzyl-2,3-dioxo-3-(cyclobutylamino)propyl)amino)carbonyl)-3-methylbutyl) carbamic acid 2-methoxyethyl ester] is 114.2 to 115.3 °C.
On to `CCCCNC(=O)C(=O)[C@H](Cc1ccccc1)NC(=O)[C@H](CC(C)C)NC(=O)OCCOC` [Compound 9, ((1S)-1-((((1S)-1-Benzyl-3-butylamino-2,3-dioxopropyl)amino)carbonyl)-3-methylbutyl) carbamic acid 2-methoxyethyl ester], for which the melting point lay in the range of 94 to 95.2 °C.
Compound `COCCOC(=O)N[C@@H](CC(C)C)C(=O)N[C@@H](Cc1ccccc1)C(=O)C(=O)NCC(F)(F)F` [Compound 10, ((1S)-1-((((1S)-1-Benzyl-2,3-dioxo-3-(2,2,2-trifluoroethylamino)propyl)amino)carbonyl)-3-methylbutyl) carbamic acid 2-methoxyethyl ester] displayed a melting point of 152.5 to 153.9 °C.
On the same count and under the same terms, the result for `COCCOC(=O)N[C@@H](CC(C)C)C(=O)N[C@@H](Cc1ccccc1)C(=O)C(=O)NC1Cc2ccccc2C1` [Compound 11, ((1S)-1-((((1S)-1-Benzyl-2,3-dioxo-3-(2-indanylamino)propyl)amino)carbonyl)-3-methylbutyl)carbamic acid 2-methoxyethyl ester] reads 141.9 to 143.5 °C; that for `COCCNC(=O)C(=O)[C@H](Cc1ccccc1)NC(=O)[C@H](CC(C)C)NC(=O)OCCOC` [Compound 12, ((1S)-1-((((1S)-1-Benzyl-2,3-dioxo-3-(2-methoxyethylamino)propyl)amino)carbonyl)-3-methylbutyl) carbamic acid 2-methoxyethyl ester], 127 to 127.9 °C; that for `CCNC(=O)C(=O)[C@H](CCc1ccccc1)NC(=O)[C@H](CC(C)C)NC(=O)OCCOC` [Compound 13, ((1S)-1-((((1S)-2,3-Dioxo-3-ethylamino-1-(phenylethyl)propyl)amino)carbonyl)-3-methylbutyl)carbamic acid 2-methoxyethyl ester], 119.1 to 120.4 °C.
As for `CCNC(=O)C(=O)[C@H](CCc1ccccc1)NC(=O)[C@H](CC(C)C)NC(=O)O[C@H]1CCOC1` [Compound 14, ((1S)-1-((((1S)-2,3-Dioxo-3-ethylamino-1-(phenylethyl)propyl)amino)carbonyl)-3-methylbutyl)carbamic acid (3S)-tetrahydrofuran-3-yl ester], the melting point was in the range of 111.9 to 114.5 °C.
Still for that read-out and setting: the result for `COCCOC(=O)N[C@@H](CC(C)C)C(=O)N[C@@H](CCc1ccccc1)C(=O)C(=O)NC1CC1` [Compound 15, ((1S)-1-((((1S)-2,3-Dioxo-3-cyclopropylamino-1-(phenylethyl)propyl)amino)carbonyl)-3-methylbutyl)carbamic acid 2-methoxyethyl ester] reads 109.7 to 111.1 °C; that for `CC(C)C[C@H](NC(=O)O[C@H]1CCOC1)C(=O)N[C@@H](CCc1ccccc1)C(=O)C(=O)NC1CC1` [Compound 16], 115.8 to 116.2 °C.
As to `COCCOCCOCCOCCOC(=O)N[C@@H](CC(C)C)C(=O)N[C@@H](Cc1ccccc1)C(=O)C(=O)NC1CC1` [Compound 19, ((1S)-1-((((1S)-1-Benzyl-2,3-dioxo-3-(cyclopropylamino)propyl)amino)carbonyl)-3-methylbutyl)carbamic acid 11-methoxy-3,6,9-trioxaundecanyl ester], the melting point was 97.5 to 98.5 °C.
The compound `COCCOCCOCCOCCOCCOC(=O)N[C@@H](CC(C)C)C(=O)N[C@@H](Cc1ccccc1)C(=O)C(=O)NC1CC1` [Compound 20, ((1S)-1-((((1S)-1-Benzyl-2,3-dioxo-3-(cyclopropylamino)propyl)amino)carbonyl)-3-methylbutyl)carbamic acid 14-methoxy-3,6,9,12-tetraoxatetradecanyl ester] yielded a melting point of 98.5 to 99.9 °C.
As to `COCCOC(=O)N[C@@H](CC(C)C)C(=O)N[C@@H](CC(C)C)C(=O)C(=O)NCCOc1ccccc1` [Compound 21, ((1S)-1-((((1S)-2,3-Dioxo-1-(2-methylpropyl)-3-(2-phenoxyethyl)aminopropyl)amino)carbonyl)-3-methylbutyl) carbamic acid 2-methoxyethyl ester], the melting point is 99.7 to 100.5 °C.
On to `COCCOCCOC(=O)N[C@@H](CC(C)C)C(=O)N[C@@H](CC(C)C)C(=O)C(=O)NCCOc1ccccc1` [Compound 22, ((1S)-1-((((1S)-2,3-Dioxo-1-(2-methylpropyl)-3-(2-phenoxyethyl)aminopropyl)amino)carbonyl)-3-methylbutyl) carbamic acid 5-methoxy-3-oxapentyl ester], for which the melting point was in the range of 53.3 to 54.1 °C.

Another data set has as its target m-calpain (derived from porcine kidney) (Sus scrofa, UniProt P43367). As to the kind of experiment: Measurement of inhibitory activity against m-calpain. It is filed as biochemical. Conditions: casein substrate, pH 7.4, 30° C. for 60 minutes; read-out: Enzyme inhibitory activity m-Calpain (IC50).
Method: More specifically, 200 μL of a reaction solution containing 0.5 mg/mL casein, 50 mM Tris-HCl buffer (pH 7.4), 20 mM dithiothreitol and 1.0 nmol μ-calpain (derived from human red blood cells, Cosmo Bio Co., Ltd.) or m-calpain (derived from porcine kidney, Cosmo Bio Co., Ltd.) was added to individual 2.5 μL portions of DMSO solution containing a varying concentration of a test sample in a 96-well plate. Then, 50 μL of 20 mM aqueous calcium chloride was added thereto, and reaction was performed at 30° C. for 60 minutes. 100 μL of the reaction solution was transferred to another 96-well plate, and purified water (50 μL) and 50% aqueous solution (100 μL) of Protein Assay Dye Reagent (available from Bio-Rad Laboratories, Inc.; catalogue No. 500-600) were added thereto. […] The absorbance of a reaction mixture prepared in the same manner as mentioned above, except that a DMSO solution containing no sample was used as a control value; and the absorbance of a reaction mixture prepared in the same manner as mentioned above, except that a 1 mM aqueous EDTA solution (50 μL) was used in place of 20 mM aqueous calcium chloride, was used as a blank value.
Consider `COCCOCCOCCOCCOC(=O)N[C@@H](CC(C)C)C(=O)N[C@@H](Cc1ccccc1)C(=O)C(=O)NC1CC1` [Compound 19, ((1S)-1-((((1S)-1-Benzyl-2,3-dioxo-3-(cyclopropylamino)propyl)amino)carbonyl)-3-methylbutyl)carbamic acid 11-methoxy-3,6,9-trioxaundecanyl ester], for which the IC50 is 170 nM.
In the case of `COCCOCCOCCOCCOCCOC(=O)N[C@@H](CC(C)C)C(=O)N[C@@H](Cc1ccccc1)C(=O)C(=O)NC1CC1` [Compound 20, ((1S)-1-((((1S)-1-Benzyl-2,3-dioxo-3-(cyclopropylamino)propyl)amino)carbonyl)-3-methylbutyl)carbamic acid 14-methoxy-3,6,9,12-tetraoxatetradecanyl ester], the 50% inhibitory concentration (IC50) was 190 nM.
